Measured values from US11364231B2, “Methods of treating radiation induced gastrointestinal syndrome (RIGS) and related disease states using YEL002/BCN057” (priority 2017, dated 2022).
Values joined by “and” are separate entries in the source; they are usually repeats but may differ in a detail not shown here. Equal entries are not always repeated. “Also recorded” adds a separate entry of the source.

What was measured:
[1] = system: human malignant colonic organoids; experiment: Human colon tumor derived organoids with or without irradiation; format: cell-based
Description: FIG. 16. […] Organoids derived from surgical specimen of colon tumor were exposed to irradiation (8Gy) and then treated with BCN057. Note loss of budding crypt like structure in Irradiated organoids treated with BCN057.
FIG. 17. […] Budding crypt to total crypt ratio reduced in a dose dependent manner following irradiation (2-8 Gy).
BCN057 was first examined in the National Cancer Institute (NCI) 60 cancer cell line platform. Several of these cell lines are known to be positive for dysregulation of the Wnt/b-catenin signaling pathway. […] Next we examined the effect of BCN057 in human colonic tumor derived organoids exposed to irradiation.

[2] = system: irradiated intestinal epithelium (jejunum); experiment: Jejunum histology and crypt proliferation after AIR; format: in vivo
[3] = system: human colonic organoid developed from non-malignant tissue; experiment: Irradiated human colonic organoids from non-malignant tissue; format: cell-based
Experimental: FIG. 13. […] Note presence of budding crypt like structure in BCN057 treated group.
To examine the effect of BCN057 on human intestinal, epithelial tissue surgical specimen collected from normal colon at least 10 cm apart from malignant site was used to develop ex vivo crypt organoid. At a dose level of 8 Gy all the budding crypts have been disappeared in the organoids. […] The effect of BCN057 on mRNA level of β-catenin target genes in organoids was also evaluated.

[4] = system: irradiated intestinal epithelium (jejunum); experiment: Jejunum histology and crypt proliferation after AIR; format: in vivo; remark: listed apart in the source
Description: Since radiation doses>8 Gy induces cell cycle arrest and apoptosis of the crypt epithelial cells within day 1 post-radiation, resulting in a decrease in regenerating crypt colonies by day 3.5 and ultimately villi denudation by day 7 post-radiation exposure, animals were sacrificed when moribund or at 3.5 days after AIR for time course experiments and intestines were collected for histology. The intestine of each animal was dissected, washed in PBS to remove intestinal contents and the jejunum was fixed in 10% neutral-buffered formalin before paraffin embedding. Tissue was routinely processed and cut into 5 μm sections for haematoxylin and eosin and immunohistochemical staining. All haemotoxylin and eosin (HE) (Fisher Scientific, Pittsburgh, Pa.) staining was performed at the Pathology Core Facility in the KUMC Cancer Center.
To visualize villous cell proliferation mid-jejunum was collected for paraffin embedding and Ki67 immunohistochemistry. Tissue sections were routinely deparaffinized and rehydrated through graded alcohols and incubated overnight at room temperature with a monoclonal anti Ki67 antibody. Nuclear staining was visualized using streptavidin-peroxidase and diaminobenzidine (DAB) and samples were lightly counterstained with haematoxylin. […] The proliferation rate was calculated as the percentage of KI67-positive cells over the total number of cells in each crypt. A total of 60 crypts were examined per animal.
Crypt depth was independently and objectively analyzed and quantitated in a blind manner from coded digital photographs of crypts from HE-stained slides using ImageJ 1.37 software to measure the height in pixels from the bottom of the crypt to the crypt villus junction. Villi length was determined by measuring the length from the crypt villus junction to villous tip. This measurement in pixels was converted to length (in μm) by dividing with the following a conversion factor (1.46 pixels μm-1).

[5] = system: C57B16 mice exposed to PBI (BM40); experiment: Survival after partial body irradiation (PBI, BM40); format: in vivo; conditions: 14.5 Gy PBI (BM40), BCN057 at 24 hrs post PBI; untreated dead within 12 days
Description: FIG. 1C. Kaplan Meier survival analysis of C57B16 mice (n=25/group) exposed to PBI (BM40). Head & Neck and upper extremities were shielded to spare 40% of bone marrow.
Unless there has been a very focal radiation exposure there will also be involvement of many other organ systems, and their differential responses to various doses of irradiation will impact the gastrointestinal acute radiation syndrome (GI-ARS) dose response. All radiation doses inducing GI-ARS will have a major impact on the bone marrow, which in turn will affect the levels of intestinal inflammation and ability of the body to manage the infection resulting from bacterial translocation through an impaired intestinal mucosal barrier. To investigate involvement of bone marrow in survival outcome upon BCN057 treatment, C57B16 mice were exposed to partial body irradiation (PBI) where 40% of total bone marrow was […] to irradiation after shielding head and fore limbs. Treatment with BCN057 at 24 hrs post exposure of 14.5 Gy PBI rescued 70% of mice from radiation lethality (p<0.0001). However, all the untreated mice were dead within 12 days post-exposure (FIG. 1C).

[6] = system: C57B16 mice exposed to AIR; experiment: Survival after lethal abdominal irradiation (AIR), RIGS model; conditions: for survival: BCN057 s.c. 150 mg/kg from 24 hrs post AIR, single dose/day up to day 8, n=25/group, vehicle/untreated died within 15 days
Experimental: FIG. 1A. […] A 3 cm area of the mice containing the GI was irradiated (irradiation field), thus shielding the upper thorax, head and neck as well as lower and upper extremities, protecting a significant portion of the bone marrow, thus inducing predominantly RIGS. Mice exposed to AIR were treated with BCN057 (s.c.) (150 mg/kg of body weight) at 24 hrs post irradiation and continued up to day 8 (single dose/day).
To examine the radio-mitigating role of BCN057 against RIGS, C57B16 mice were exposed to graded doses of abdominal irradiation (AIR) (14-15Gy) after shielding the thorax, head and neck, and extremities, thus protecting the bone marrow.
Male C57B16/6J (Jackson laboratories) mice (five to six weeks old) were maintained ad libitum and all studies were performed under the guidelines and protocols of the Institutional Animal Care and Use Committee of the University of Kansas medical center.
AIR was performed on anaesthetized mice (with a continuous flow 1.5 ml min-1 of 1.5% isoflurane in pure oxygen) using the small animal radiation research platform (SARRP, XStrahl, Surrey, UK). A 2 cm area of the mice containing the GI was irradiated (FIG. 2), thus shielding the upper thorax, head and neck as well as lower and upper extremities, protecting a significant portion of the bone marrow, thus inducing predominantly RIGS. A radiation dose of 14-15 Gy was delivered to the midline of the GI, ensuring homogeneous delivery by performing half of the total irradiation from the anterior-posterior direction and the second half from the posterior-anterior direction. The total irradiation time to deliver the intended dose was calculated with respect to dose rate, radiation field size and fractional depth dose to ensure accurate radiation dosimetry.

[7] = jejunum, BCN057 at 24 hrs after AIR vs irradiated control

SMILES: COc1ccc2cc(-c3nc4ccc(C)cn4c3NCc3ccco3)c(=O)[nH]c2c1 [BCN057, 3-(3((furan-2-ylmethyl)ammo)-6-methylimidazo[1,2-a]pyridine-2-yl)-6-methoxyquinolin-2(1H)-one]
- rescue of malignant organoids from radiation toxicity ([1]; 8Gy (2-8 Gy in FIG. 17), BCN057 10 uM at 1 hr post radiation): did not recue organoids from radiation toxicity; also recorded: did not rescue; also recorded: could not reduce the radiation toxicity
- growth and proliferation of malignant organoid ([1]; un-irradiated organoids treated with BCN057): inhibitory effect
- percent of BrdU+ve crypt epithelial cells ([2]; BCN057 treated vs untreated irradiated control, p<0.0005): significantly higher
- crypt villus morphology and BRDU incorporation ([2]; non-irradiated mice treated with BCN057): did not induce any changes
- budding crypts / organoid structure ([3]; 8Gy, BCN057 (20 ug/ml) at 1 hr post irradiation, 72 hrs): complete restitution of organoid structure; also recorded: rescued the organoids from radiation toxicity
- Ki67 staining in budding crypt like structure ([3]; 8Gy, BCN057 treated organoids): positive staining
- ratio of budding crypt to total number of crypts ([3]; irradiated organoids 4Gy and 8Gy, vs untreated irradiated control): increased
- number of crypt in jejunum ([4]; BCN057 at 24 hrs after AIR vs irradiated control): increase in number of crypts
- crypt villus structure / epithelium (HE staining) ([4]; jejunum, 3.5 day after AIR, BCN057 at 24 hrs post AIR): normal crypt villus structure; also recorded: restitution of epithelium
- % of Ki67 positive crypt cells [4, 7]: increase in crypt cell proliferation
- Crypt Depth villi length [4, 7]: preserved villous length; also recorded: increase
- survival [5]: 70%
- duration of survival post AIR ([6]; 14-15 Gy AIR, BCN057 at 24 hrs post AIR): > 30 days and > 60 days
- survival ([6]; 14Gy AIR): 80%
- survival ([6]; 15Gy AIR): 60%
- symptoms / clinical conditions in surviving treated mice ([6]; after AIR/PBI, observed up to day 30-60 post exposure): without showing any symptoms of RIGS; also recorded: did not develop any clinical conditions; also recorded: without any symptom of gastroenteritis or any other health complications
- toxicity to normal mice ([6]; normal (un-irradiated) mice): do not confer any toxicity
